Laboratory results taken from ChEMBL document CHEMBL2062461 (Eur J Med Chem, 2012).

Experiments:
Acetylcholinesterase [1] = target: T1, Acetylcholinesterase (Homo sapiens, UniProt P22303)
Description: Inhibition of human recombinant AChE assessed as dissociation constant for enzyme-inhibitor complex using acetylthiocholine substrate preincubated for 5 mins before substrate addition by Ellman's method

Cholinesterase = Cholinesterase (Homo sapiens, UniProt P06276)
Description: Inhibition of human plasmatic BChE using butylthiocholne substrate preincubated for 5 mins before substrate addition by Ellman's method

Acetylcholinesterase [2] = target: T1, Acetylcholinesterase; remark: listed apart in the source
Description: Inhibition of human recombinant AChE assessed as dissociation constant for enzyme-inhibitor-substrate complex using acetylthiocholine substrate preincubated for 5 mins before substrate addition by Ellman's method

Acetylcholinesterase [3] = target: T1, Acetylcholinesterase; remark: listed apart in the source
Description: Inhibition of human recombinant AChE using acetylthiocholine substrate preincubated for 5 mins before substrate addition by Ellman's method

Chain of Cholinesterase (P06276 whole entry): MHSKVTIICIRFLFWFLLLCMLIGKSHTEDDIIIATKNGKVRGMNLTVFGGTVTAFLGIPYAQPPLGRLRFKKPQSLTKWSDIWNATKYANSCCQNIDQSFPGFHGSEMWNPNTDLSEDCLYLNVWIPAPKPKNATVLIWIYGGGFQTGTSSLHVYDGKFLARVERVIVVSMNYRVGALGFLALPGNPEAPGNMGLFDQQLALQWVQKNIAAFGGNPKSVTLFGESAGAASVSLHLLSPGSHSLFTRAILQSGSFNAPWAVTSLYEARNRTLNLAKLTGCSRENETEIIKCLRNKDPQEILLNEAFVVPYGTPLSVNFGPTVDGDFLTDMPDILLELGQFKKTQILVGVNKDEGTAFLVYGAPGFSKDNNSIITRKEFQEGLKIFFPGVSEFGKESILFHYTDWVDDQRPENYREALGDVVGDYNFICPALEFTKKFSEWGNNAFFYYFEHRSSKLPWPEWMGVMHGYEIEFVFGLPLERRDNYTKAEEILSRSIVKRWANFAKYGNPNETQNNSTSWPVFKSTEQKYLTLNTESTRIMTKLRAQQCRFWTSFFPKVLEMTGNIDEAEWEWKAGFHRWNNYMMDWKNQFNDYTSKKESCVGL
T1 sequence (P22303 whole entry): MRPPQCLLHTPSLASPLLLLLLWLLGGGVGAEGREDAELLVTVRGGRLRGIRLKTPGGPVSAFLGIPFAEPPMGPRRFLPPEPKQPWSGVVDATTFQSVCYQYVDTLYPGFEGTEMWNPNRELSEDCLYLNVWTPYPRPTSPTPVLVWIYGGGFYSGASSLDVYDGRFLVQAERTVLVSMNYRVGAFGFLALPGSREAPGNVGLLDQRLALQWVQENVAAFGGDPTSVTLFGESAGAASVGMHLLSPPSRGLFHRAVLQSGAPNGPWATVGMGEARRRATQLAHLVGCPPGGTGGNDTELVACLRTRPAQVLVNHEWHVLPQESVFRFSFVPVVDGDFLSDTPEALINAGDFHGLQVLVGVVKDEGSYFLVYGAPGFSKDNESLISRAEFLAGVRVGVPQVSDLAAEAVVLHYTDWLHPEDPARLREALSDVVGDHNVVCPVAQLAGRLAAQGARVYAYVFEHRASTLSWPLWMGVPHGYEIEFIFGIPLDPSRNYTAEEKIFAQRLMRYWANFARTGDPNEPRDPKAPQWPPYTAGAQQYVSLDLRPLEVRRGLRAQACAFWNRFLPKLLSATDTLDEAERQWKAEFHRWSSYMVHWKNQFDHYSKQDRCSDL

SMILES	Ki (Acetylcholinesterase [1])	IC50 (Cholinesterase)	Ki (Acetylcholinesterase [2])	IC50 (Acetylcholinesterase [3])
O=C(CCN1CCCCC1)N1CCN(CCNc2c3c(nc4ccccc24)CCCC3)CC1	0.0168 µM	0.0778 µM	0.0761 µM	0.0517 µM
CN(CCC(=O)N1CCN(CCNc2c3c(nc4ccccc24)CCCC3)CC1)C1CCCCC1	0.00038 µM	0.0637 µM	0.000318 µM	0.0149 µM
CCN(CCC(=O)N1CCN(CCNc2c3c(nc4ccccc24)CCCC3)CC1)C1CCCCC1	0.00135 µM	0.0412 µM	0.00373 µM	0.00497 µM
CN(CCC(=O)N1CCN(CCNc2c3c(nc4ccccc24)CCCC3)CC1)c1ccccc1	0.0137 µM	0.0337 µM	0.0855 µM	0.0703 µM
CN(CCCN1CCN(CCNc2c3c(nc4ccccc24)CCCC3)CC1)C1CCCCC1	0.0103 µM	0.137 µM	0.0476 µM	0.0407 µM
CCN(CCCN1CCN(CCNc2c3c(nc4ccccc24)CCCC3)CC1)C1CCCCC1		0.126 µM		0.194 µM
CN(CCCN1CCN(CCNc2c3c(nc4ccccc24)CCCC3)CC1)c1ccccc1	0.08 µM	0.211 µM	0.0247 µM	0.0848 µM
O=C(CCNCCNc1c2c(nc3ccccc13)CCCC2)N1CCN(CCNc2c3c(nc4ccccc24)CCCC3)CC1		1.52 µM		0.00449 µM
